Measurements reported in patent US10208152B2, “Poly(ethylene glycol)-b-poly(halomethylstyrene), derivative thereof, and method for producing same” (priority 2014, dated 2019).
Where two headings read alike, the source gives them in different places.

Test system: acetaminophen-induced hepatotoxicity
Details: for Prothrombin time (indicator of hepatic function): FIG. 17
Protocol: Group 1: Untreated control (4 mice in this group only)
Group 2: 3 mg/kg of acetaminophen administered orally on the 7th day from the start of the test
Group 3: 1 mL of the blank micelles (6.25 mg/mL, 160 mg/kg) synthesized in Example 21 forcibly administered once per day via a feeding tube, 3 m g/kg of acetaminophen administered orally on the 7th day from the start of the test.
Group 5: 170 mg/kg of 4-amino-TEMPO forcibly administered once per day via a feeding tube, 3 mg/kg of acetaminophen administered orally on the 7th day from the start of the test.
Group 6: 600 mg/kg of acetylcysteine forcibly administered once per day via a feeding tube, 3 mg/kg of acetaminophen administered orally on the 7th day from the start of the test.

[1] = 6 mice before test, substance once per day by feeding tube (newRNP^N Example 16, m=13, 160 mg/kg; 4-amino-TEMPO 170 mg/kg; acetylcysteine 600 mg/kg), 3 mg/kg acetaminophen orally on 7th day
[2] = oral once per day, 3 mg/kg acetaminophen on 7th day, newRNP^N m=13

SMILES	Numbers of mice alive, After test [1]	Prothrombin time (indicator of hepatic function) [2]	Toxicity by albumin quantity and AST, ALT and ALP enzyme levels (oral once per day, 3 mg/kg acetaminophen on 7th day, newRNP^N m=13, FIGS. 19 to 22)	Numbers of mice alive, After test (IGS, mouse, in vivo, po, 3 mg/kg, 1 day)	Share of mice that died within 1 day (acetaminophen alone, 3 mg/kg orally (group 2))	Superoxide dismutase (SOD) production (oral once per day, 3 mg/kg acetaminophen on 7th day, newRNP^N m=13, FIG. 18)
CC1(C)CC(N)CC(C)(C)N1[O] [4-amino-TEMPO]	2	extended	extremely high toxicity			
CC(=O)Nc1ccc(O)cc1 [acetaminophen]				2	two thirds	significant decrease
CC(=O)N[C@@H](CS)C(=O)O [acetylcysteine]	4	extended				
